Laboratory results taken from paper PMC11601558, “SLC6A19 inhibition facilitates urinary neutral amino acid excretion and lowers plasma phenylalanine” (JCI Insight, 2024).
Where two headings read alike, the source gives them in different places.

Experiments:
[1] = system: healthy volunteers; test: Phase 1 safety and tolerability, single ascending dose (SAD) cohorts; type: in vivo, human; settings: for AEs leading to IP discontinuation / Any CTCAE Grade ≥ 3 / Any TEAE / Death / SAE / TEAE Alanine aminotransferase increased / TEAE Aspartate aminotransferase increased / TEAE Blood creatine phosphokinase increased / TEAE Catheter site pain / TEAE Dizziness / TEAE Headache / TEAE Hematuria / TEAE Nausea / TEAE Pyrexia / TEAE Syncope / TEAE Upper respiratory tract infection / TEAE Urinary tract infection: n = 6
Method: Parts A and B of this phase 1, randomized, double-blind, placebo-controlled SAD and MAD oral dose study with JNT-517 were conducted in healthy volunteers. The primary objective for these studies was to assess the safety and tolerability of single and multiple doses of JNT-517 in healthy participants. The secondary objective for these studies was to assess the PK of single and multiple oral doses of JNT-517.
Eligible participants included males and females 18 to 55 years of age, medically healthy with no clinically notable medical history, a BMI of 18–40 kg/m^2 and total body weight > 50 kg (110 lbs), and who have been nonsmokers for at least 2 weeks prior to and throughout dosing.
In total, 40 participants who were healthy adult were randomized to receive JNT-517 (10–170 mg) or placebo (3:1 ratio) in 5 cohorts of 8 participants as SADs. […] Within each SAD cohort, a sentinel group of 2 participants were initially randomized to receive JNT-517 or placebo in a 1:1 ratio. Once safety was confirmed for these 2 sentinel participants over a 48-hour observation period, the remaining 6 participants in the same cohort were randomized 5:1 to receive JNT-517 or placebo. Both JNT-517 and placebo were administered as an on-site compounded suspension.
In both SAD and MAD studies, safety and tolerability were assessed by AE monitoring, clinical laboratory tests (blood chemistries, hematology, coagulation, serology, and urinalysis), vital signs, 12-lead electrocardiograms, and physical examinations. Safety assessment and corresponding samples were collected on day-1 prior to dosing and days 1, 2, 3, and 8 for the SAD study or throughout the 14 days of dosing and day 21 for the MAD study.

[2] = JNT-517 plasma pharmacokinetics in healthy volunteers; type: in vivo, human; settings: for half-life / Tmax: human, plasma, oral; for half-life: read-out: Mean T1/2 (converted); for Tmax: min, read-out: Median Tmax
Method: The plasma pharmacokinetic profile of JNT-517 was measured using a qualified high-performance LC-MS assay. Blood samples for PK analysis were taken before dosing, and 0.5, 1, 1.5, 2, 2.5, 3, 4, 6, 8, 10, 12, 24, 36, […], and 72 hours after dosing in the SAD study. For the MAD study, blood samples for PK analysis were taken before dosing, and 0.5, 1, 1.5, 2, 2.5, 3, 4, 6, 8, 10, 12, and 24 hours after dosing in the case of once-daily dosing or 0.5, 1, 1.5, 2, 2.5, 3, 4, 6, 8.5, 9 9.5, 10, 10.5, 11, 12, 14, 16, and 24 hours after dosing in the case of twice daily dosing. In addition, predose samples were collected throughout days 3–13. The resulting concentration-time data was evaluated using standard noncompartmental analysis methods, and PK parameters were calculated (Cmax, Tmax, T1/2, AUC0-inf, CL/F, Vd/F).
IC50 values for transport inhibition in cells overexpressing SLC6A19 and TMEM27 were calculated using a 4-parameter logistic regression in Collaborative Drug Discovery (CDD). Reported IC50 values are geometric means of 4–6 independent experiments. For postmortem intestinal transport assays, single outliers of quadruplicate replicates were excluded from the calculation if a signal value’s distance to the mean exceeded 35% of the signal average. The IC50 values of individual experiments were calculated with a 3- or 4-parameter logistic regression using GraphPad Prism 9. The reported IC50 value represents the geometric mean of n = 5 experiments from 3 individual donors. Statistical comparison of urinary Phe excretion in Pah^enu2 mice treated with vehicle or JN-170 was conducted using 1-way analysis of variance (ANOVA) with Tukey’s post hoc comparison. Statistical analysis of baseline-adjusted plasma Phe in mice treated with vehicle or JN-170 was determined by 2-way ANOVA with Dunnett’s post hoc comparison. All statistical analyses were performed using GraphPad Prism 9. For clinical studies, group sizes were not determined based on statistical power calculations. Statistical significance of pharmacodynamic results was not assessed. Values are reported as mean (urinary Phe excretion, T1/2, Cl/F), geometric mean (Cmax/D, AUC0-inf/D), or median (Tmax).

NC(=O)N1CCC[C@@H](N(C(=O)NCc2ccc(OC(F)(F)F)cc2F)C2CC2)C1 [JNT-517]
AEs leading to IP discontinuation ([1]; SAD 10 mg): 0 Number (%)
Any CTCAE Grade ≥ 3 ([1]; SAD 10 mg): 0 Number (%)
Any TEAE ([1]; SAD 10 mg): 2 (33.3) Number (%)
Death ([1]; SAD 10 mg): 0 Number (%)
SAE ([1]; SAD 10 mg): 0 Number (%)
TEAE Alanine aminotransferase increased ([1]; SAD 10 mg): 0 Number (%)
TEAE Aspartate aminotransferase increased ([1]; SAD 10 mg): 0 Number (%)
TEAE Blood creatine phosphokinase increased ([1]; SAD 10 mg): 0 Number (%)
TEAE Catheter site pain ([1]; SAD 10 mg): 1 (16.7) Number (%)
TEAE Dizziness ([1]; SAD 10 mg): 1 (16.7) Number (%)
TEAE Headache ([1]; SAD 10 mg): 1 (16.7) Number (%)
TEAE Hematuria ([1]; SAD 10 mg): 0 Number (%)
TEAE Nausea ([1]; SAD 10 mg): 1 (16.7) Number (%)
TEAE Pyrexia ([1]; SAD 10 mg): 0 Number (%)
TEAE Syncope ([1]; SAD 10 mg): 0 Number (%)
TEAE Upper respiratory tract infection ([1]; SAD 10 mg): 0 Number (%)
TEAE Urinary tract infection ([1]; SAD 10 mg): 0 Number (%)
AEs leading to IP discontinuation ([1]; SAD 25 mg): 0 Number (%)
Any CTCAE Grade ≥ 3 ([1]; SAD 25 mg): 1 (16.7) Number (%)
Any TEAE ([1]; SAD 25 mg): 2 (33.3) Number (%)
Death ([1]; SAD 25 mg): 0 Number (%)
SAE ([1]; SAD 25 mg): 0 Number (%)
TEAE Alanine aminotransferase increased ([1]; SAD 25 mg): 1 (16.7) Number (%)
TEAE Aspartate aminotransferase increased ([1]; SAD 25 mg): 1 (16.7) Number (%)
TEAE Blood creatine phosphokinase increased ([1]; SAD 25 mg): 1 (16.7) Number (%)
TEAE Catheter site pain ([1]; SAD 25 mg): 0 Number (%)
TEAE Dizziness ([1]; SAD 25 mg): 0 Number (%)
TEAE Headache ([1]; SAD 25 mg): 0 Number (%)
TEAE Hematuria ([1]; SAD 25 mg): 1 (16.7) Number (%)
TEAE Nausea ([1]; SAD 25 mg): 0 Number (%)
TEAE Pyrexia ([1]; SAD 25 mg): 0 Number (%)
TEAE Syncope ([1]; SAD 25 mg): 0 Number (%)
TEAE Upper respiratory tract infection ([1]; SAD 25 mg): 0 Number (%)
TEAE Urinary tract infection ([1]; SAD 25 mg): 0 Number (%)
AEs leading to IP discontinuation ([1]; SAD 50 mg): 0 Number (%)
Any CTCAE Grade ≥ 3 ([1]; SAD 50 mg): 1 (16.7) Number (%)
Any TEAE ([1]; SAD 50 mg): 2 (33.3) Number (%)
Death ([1]; SAD 50 mg): 0 Number (%)
SAE ([1]; SAD 50 mg): 0 Number (%)
TEAE Alanine aminotransferase increased ([1]; SAD 50 mg): 0 Number (%)
TEAE Aspartate aminotransferase increased ([1]; SAD 50 mg): 0 Number (%)
TEAE Blood creatine phosphokinase increased ([1]; SAD 50 mg): 0 Number (%)
TEAE Catheter site pain ([1]; SAD 50 mg): 0 Number (%)
TEAE Dizziness ([1]; SAD 50 mg): 0 Number (%)
TEAE Headache ([1]; SAD 50 mg): 1 (16.7) Number (%)
TEAE Hematuria ([1]; SAD 50 mg): 0 Number (%)
TEAE Nausea ([1]; SAD 50 mg): 0 Number (%)
TEAE Pyrexia ([1]; SAD 50 mg): 0 Number (%)
TEAE Syncope ([1]; SAD 50 mg): 1 (16.7) Number (%)
TEAE Upper respiratory tract infection ([1]; SAD 50 mg): 1 (16.7) Number (%)
TEAE Urinary tract infection ([1]; SAD 50 mg): 0 Number (%)
AEs leading to IP discontinuation ([1]; SAD 100 mg): 0 Number (%)
Any CTCAE Grade ≥ 3 ([1]; SAD 100 mg): 0 Number (%)
Any TEAE ([1]; SAD 100 mg): 0 Number (%)
Death ([1]; SAD 100 mg): 0 Number (%)
SAE ([1]; SAD 100 mg): 0 Number (%)
TEAE Alanine aminotransferase increased ([1]; SAD 100 mg): 0 Number (%)
TEAE Aspartate aminotransferase increased ([1]; SAD 100 mg): 0 Number (%)
TEAE Blood creatine phosphokinase increased ([1]; SAD 100 mg): 0 Number (%)
TEAE Catheter site pain ([1]; SAD 100 mg): 0 Number (%)
TEAE Dizziness ([1]; SAD 100 mg): 0 Number (%)
TEAE Headache ([1]; SAD 100 mg): 0 Number (%)
TEAE Hematuria ([1]; SAD 100 mg): 0 Number (%)
TEAE Nausea ([1]; SAD 100 mg): 0 Number (%)
TEAE Pyrexia ([1]; SAD 100 mg): 0 Number (%)
TEAE Syncope ([1]; SAD 100 mg): 0 Number (%)
TEAE Upper respiratory tract infection ([1]; SAD 100 mg): 0 Number (%)
TEAE Urinary tract infection ([1]; SAD 100 mg): 0 Number (%)
AEs leading to IP discontinuation ([1]; SAD 170 mg): 0 Number (%)
Any CTCAE Grade ≥ 3 ([1]; SAD 170 mg): 0 Number (%)
Any TEAE ([1]; SAD 170 mg): 1 (16.7) Number (%)
Death ([1]; SAD 170 mg): 0 Number (%)
SAE ([1]; SAD 170 mg): 0 Number (%)
TEAE Alanine aminotransferase increased ([1]; SAD 170 mg): 0 Number (%)
TEAE Aspartate aminotransferase increased ([1]; SAD 170 mg): 0 Number (%)
TEAE Blood creatine phosphokinase increased ([1]; SAD 170 mg): 0 Number (%)
TEAE Catheter site pain ([1]; SAD 170 mg): 0 Number (%)
TEAE Dizziness ([1]; SAD 170 mg): 0 Number (%)
TEAE Headache ([1]; SAD 170 mg): 0 Number (%)
TEAE Hematuria ([1]; SAD 170 mg): 0 Number (%)
TEAE Nausea ([1]; SAD 170 mg): 0 Number (%)
TEAE Pyrexia ([1]; SAD 170 mg): 1 (16.7) Number (%)
TEAE Syncope ([1]; SAD 170 mg): 0 Number (%)
TEAE Upper respiratory tract infection ([1]; SAD 170 mg): 0 Number (%)
TEAE Urinary tract infection ([1]; SAD 170 mg): 1 (16.7) Number (%)
incidence of adverse events (AE) ([1]; SAD cohorts, all JNT-517 doses (7 of 30)): 23.3%
safety and tolerability ([1]; healthy participants, SAD 10–170 mg and MAD 14 days): safe and well tolerated
plasma exposure exceeding the in vitro IC75 ([2]; MAD 150 mg QD): approximately 24 hours
accumulation between days 1 and 14 ([2]; MAD cohorts, dose levels tested): no accumulation was observed
Geomean Cmax/D ([2]; SAD 10 mg, %CV 23.6): 45.9 ng/mL/mg
Geomean AUC0-inf/D ([2]; SAD 10 mg, %CV 66.0): 340 ng·h/mL/mg
Mean Cl/F ([2]; SAD 10 mg, SD 1.75): 3.36 L/h
Geomean Cmax/D ([2]; SAD 25 mg, %CV 25.5): 48.5 ng/mL/mg
Geomean AUC0-inf/D ([2]; SAD 25 mg, %CV 59.0): 402 ng·h/mL/mg
Mean Cl/F ([2]; SAD 25 mg, SD 1.27): 2.78 L/h
Geomean Cmax/D ([2]; SAD 50 mg, %CV 14.8): 44.6 ng/mL/mg
Geomean AUC0-inf/D ([2]; SAD 50 mg, %CV 34.5): 348 ng·h/mL/mg
Mean Cl/F ([2]; SAD 50 mg, SD 0.873): 3.00 L/h
Geomean Cmax/D ([2]; SAD 100 mg, %CV 13.0): 35.0 ng/mL/mg
Geomean AUC0-inf/D ([2]; SAD 100 mg, %CV 42.4): 239 ng·h/mL/mg
Mean Cl/F ([2]; SAD 100 mg, SD 2.11): 4.52 L/h
Geomean Cmax/D ([2]; SAD 170 mg, %CV 24.9): 32.9 ng/mL/mg
Geomean AUC0-inf/D ([2]; SAD 170 mg, %CV 33.6): 269 ng·h/mL/mg
Mean Cl/F ([2]; SAD 170 mg, SD 1.15): 3.87 L/h
half-life ([2]; SAD 10 mg, %CV 50.2): 6.37 h
Tmax ([2]; SAD 10 mg, max 0.5, 1.07): 0.75 h
half-life ([2]; SAD 25 mg, %CV 50.7): 7.78 h
Tmax ([2]; SAD 25 mg, max 0.5, 2.0): 1 h
half-life ([2]; SAD 50 mg, %CV 35.4): 6.17 h
Tmax ([2]; SAD 50 mg, max 0.5, 2.0): 0.75 h
half-life ([2]; SAD 100 mg, %CV 31.9): 5.89 h
Tmax ([2]; SAD 100 mg, max 0.5, 1.5): 1 h
half-life ([2]; SAD 170 mg, %CV 24.7): 6.04 h
Tmax ([2]; SAD 170 mg, max 0.5, 2.0): 0.75 h
exposure above the in vitro IC75 ([2]; single 50 mg dose): > 12 h
target coverage exceeding the IC75 ([2]; single 170 mg dose): approximately 24 hours
